According to publication PMC12892976, “Alkylation-based optimization of antifungal FPPS inhibitors yields a potent, broad-spectrum lipophilic zoledronate derivative” (mBio, 2025):
Values after ≈ are worked out from the molar mass of the structure shown.

Columns and labels:
Nannizzia nana [1] = experiment: checkerboard drug interaction (FICI, MICc); assay type: cell-based;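 further: simplified diagonal checkerboard screen pairing antifungals with FPPS inhibitors, FICI calculated under the Loewe additivity model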
Protocol: (§1) Drug interactions between antifungals and FPPS inhibitors were investigated using a simplified checkerboard diagonal screening method ([45]). […] FICIs were determined according to the Loewe additivity model ([17]).

Scedosporium apiospermum [2] = experiment: MIC broth microdilution (CLSI); assay type: cell-based; conditions: Scedosporium apiospermum 04-16-022-2268
Protocol: (§2) Antifungal susceptibility was determined by broth microdilution according to the CLSI guidelines described in M27-Ed4 ([16]).

Nannizzia nana [3] = experiment: MIC broth microdilution (CLSI); assay type: cell-based; conditions: Nannizzia nana R-133
Protocol: as §2

Candida parapsilosis [4] = experiment: MIC broth microdilution (CLSI); assay type: cell-based; conditions: Candida parapsilosis ATCC 22018
Protocol: Antifungal susceptibility was determined by broth microdilution according to the CLSI guidelines described in M27-Ed4 ([16]). […] MFC was determined by back-plating drug-treated cultures from MIC broths onto SDA plates. The MFC was defined as the lowest concentration from which no colonies could be cultured.

Mucor circinelloides [5] = experiment: MIC broth microdilution (CLSI); assay type: cell-based; conditions: Mucor circinelloides 80-14-240-5007
Protocol: as §2

Candida parapsilosis [6] = experiment: checkerboard drug interaction (FICI, MICc); assay type: cell-based;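 further: simplified diagonal checkerboard screen pairing antifungals with FPPS inhibitors, with FICI computed under the Loewe additivity model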
Protocol: as §1

Aspergillus parafelis [7] = experiment: MIC broth microdilution (CLSI); assay type: cell-based; conditions: Aspergillus parafelis DTO 341-F2
Protocol: as §2

Fusarium solani = experiment: checkerboard drug interaction (FICI, MICc); assay type: cell-based;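 further: simplified diagonal checkerboard screen pairing antifungals with FPPS inhibitors, FICI derived under the Loewe additivity model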
Protocol: as §1

Trichophyton soudanense = experiment: checkerboard drug interaction (FICI, MICc); assay type: cell-based;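 further: simplified diagonal checkerboard screen pairing antifungals with FPPS inhibitors, FICI computed under the Loewe additivity model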
Protocol: as §1

Aspergillus parafelis [8] = experiment: checkerboard drug interaction (FICI, MICc);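 further: simplified diagonal checkerboard screen pairing antifungals with FPPS inhibitors, FICI calculated under the Loewe additivity model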
Protocol: as §1

Lomentospora prolificans [9] = experiment: MIC broth microdilution (CLSI); assay type: cell-based; conditions: Lomentospora prolificans 80-16-101-2445
Protocol: as §2

Epidermophyton floccosum = experiment: checkerboard drug interaction (FICI, MICc);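 further: simplified diagonal checkerboard screen pairing antifungals with FPPS inhibitors, FICI calculated under the Loewe additivity model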
Protocol: as §1

Mucor circinelloides [10] = experiment: checkerboard drug interaction (FICI, MICc); assay type: cell-based;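 further: simplified diagonal checkerboard screen pairing antifungals with FPPS inhibitors, FICI calculated under the Loewe additivity model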
Protocol: as §1

Cryptococcus tetragattii = experiment: checkerboard drug interaction (FICI, MICc); assay type: cell-based;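 further: simplified diagonal checkerboard screen pairing antifungals with FPPS inhibitors, with FICI calculated under the Loewe additivity model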
Protocol: as §1

Candida auris [11] = experiment: checkerboard drug interaction (FICI, MICc); assay type: cell-based;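 further: simplified diagonal checkerboard screen pairing antifungals with FPPS inhibitors, with FICI computed under the Loewe additivity model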
Protocol: as §1

[12] = system: Aspergillus frankstonensis; experiment: MIC broth microdilution (CLSI); assay type: cell-based; conditions: Aspergillus frankstonensis DTO 341-F3
Protocol: as §2

Aspergillus lentulus = experiment: checkerboard drug interaction (FICI, MICc); assay type: cell-based;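 further: simplified diagonal checkerboard screen pairing antifungals with FPPS inhibitors, with the interaction index calculated under the Loewe additivity model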
Protocol: as §1

Cryptococcus gattii [13] = experiment: MIC broth microdilution (CLSI); assay type: cell-based; conditions: Cryptococcus gattii PNG27
Protocol: as §2

[14] = system: Aspergillus frankstonensis; experiment: checkerboard drug interaction (FICI, MICc);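 further: simplified diagonal checkerboard screen pairing antifungals with FPPS inhibitors, FICI calculated using the Loewe additivity model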
Protocol: as §1

Fusarium oxysporum = experiment: checkerboard drug interaction (FICI, MICc); assay type: cell-based
Protocol: as §1

Nannizzia gypsea = experiment: checkerboard drug interaction (FICI, MICc);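 further: simplified diagonal checkerboard screen pairing antifungals with FPPS inhibitors, FICI derived using the Loewe additivity model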
Protocol: as §1

[15] = system: Trichophyton interdigitale; experiment: checkerboard drug interaction (FICI, MICc);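 further: simplified diagonal checkerboard screen pairing antifungals with FPPS inhibitors, FICI values calculated under the Loewe additivity model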
Protocol: as §1

Trichophyton tonsurans = experiment: checkerboard drug interaction (FICI, MICc); assay type: cell-based;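 further: simplified diagonal checkerboard screen combining antifungals with FPPS inhibitors, with FICI calculated under the Loewe additivity model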
Protocol: as §1

Aspergillus niger [16] = experiment: checkerboard drug interaction (FICI, MICc); assay type: cell-based
Protocol: as §1

Scedosporium apiospermum [17] = experiment: checkerboard drug interaction (FICI, MICc); assay type: cell-based;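 further: simplified diagonal checkerboard screen of antifungal plus FPPS inhibitor pairs, with FICI computed under the Loewe additivity model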
Protocol: as §1

Aspergillus udagawae = experiment: MIC broth microdilution (CLSI); assay type: cell-based; conditions: Aspergillus udagawae 8G81
Protocol: as §2

Rhizopus oryzae = experiment: MIC broth microdilution (CLSI); assay type: cell-based; conditions: Rhizopus oryzae 04-14-364-1703
Protocol: as §2

Candida auris [18] = experiment: MIC broth microdilution (CLSI); assay type: cell-based; conditions: Candida auris CDC-0384
Protocol: as §2

Cryptococcus gattii [19] = experiment: checkerboard drug interaction (FICI, MICc); assay type: cell-based;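 further: simplified diagonal checkerboard screen pairing antifungals with FPPS inhibitors, FICI computed under the Loewe additivity model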
Protocol: as §1

Candida dubliniensis = experiment: MIC broth microdilution (CLSI); assay type: cell-based; conditions: Candida dubliniensis M230642
Protocol: as §2

Candida tropicalis = experiment: MIC broth microdilution (CLSI); assay type: cell-based; conditions: Candida tropicalis M230640
Protocol: as §2

Microsporum canis = experiment: checkerboard drug interaction (FICI, MICc); assay type: cell-based
Protocol: as §1

Lomentospora prolificans [20] = experiment: checkerboard drug interaction (FICI, MICc)
Protocol: as §1

Aspergillus niger [21] = experiment: MIC broth microdilution (CLSI); assay type: cell-based; conditions: Aspergillus niger 111
Protocol: as §2

## CCC(C)n1ncn(-c2ccc(N3CCN(c4ccc(OCC5COC(Cn6cncn6)(c6ccc(Cl)cc6Cl)O5)cc4)CC3)cc2)c1=O (centres unmarked) [ITR, itraconazole]
Nannizzia nana [1]; in combination with 10-ZOL
  antifungal MICc: 0.25
Nannizzia nana [1]; in combination with ZOL
  antifungal MICc: 0.13
Scedosporium apiospermum [2]
  MIC / MEC: 8 µg/mL (≈ 11.3 µM)
Nannizzia nana [3]
  MIC / MEC: 0.25 µg/mL (≈ 0.354 µM)
Candida parapsilosis [4]
  MIC / MEC: 0.25 µg/mL (≈ 0.354 µM)
Mucor circinelloides [5]
  MIC / MEC: 0.5 µg/mL (≈ 0.709 µM)
Candida parapsilosis [6]; in combination with 10-ZOL
  antifungal MICc: 0.125
Candida parapsilosis [6]; in combination with ZOL
  antifungal MICc: 0.062
Aspergillus parafelis [7]
  MIC / MEC: 8 µg/mL (≈ 11.3 µM)
Fusarium solani; in combination with 10-ZOL
  antifungal MICc: 1
Fusarium solani; in combination with ZOL
  antifungal MICc: 0.5
Trichophyton soudanense; in combination with 10-ZOL
  antifungal MICc: 0.25
Trichophyton soudanense; in combination with ZOL
  antifungal MICc: 0.25
Aspergillus parafelis [8]; in combination with 10-ZOL
  antifungal MICc: 2
Aspergillus parafelis [8]; in combination with ZOL
  antifungal MICc: 8
Lomentospora prolificans [9]
  MIC / MEC: 4 µg/mL (≈ 5.67 µM)
Epidermophyton floccosum; in combination with 10-ZOL
  antifungal MICc: 0.5
Epidermophyton floccosum; in combination with ZOL
  antifungal MICc: 0.5
Mucor circinelloides [10]; in combination with 10-ZOL
  antifungal MICc: 0.25
Mucor circinelloides [10]; in combination with ZOL
  antifungal MICc: 0.06
Cryptococcus tetragattii; in combination with 10-ZOL
  antifungal MICc: 0.25
Cryptococcus tetragattii; in combination with ZOL
  antifungal MICc: 1
Candida auris [11]; in combination with 10-ZOL
  antifungal MICc: 1
Candida auris [11]; in combination with ZOL
  antifungal MICc: 1
[12]
  MIC / MEC: 2 µg/mL (≈ 2.83 µM)
Aspergillus lentulus; in combination with 10-ZOL
  antifungal MICc: 0.25
Aspergillus lentulus; in combination with ZOL
  antifungal MICc: 0.5
Cryptococcus gattii [13]
  MIC / MEC: 0.25 µg/mL (≈ 0.354 µM)
[14]; in combination with 10-ZOL
  antifungal MICc: 1
[14]; in combination with ZOL
  antifungal MICc: 2
Fusarium oxysporum; in combination with 10-ZOL
  antifungal MICc: 1
Fusarium oxysporum; in combination with ZOL
  antifungal MICc: 1
Nannizzia gypsea; in combination with 10-ZOL
  antifungal MICc: 2
Nannizzia gypsea; in combination with ZOL
  antifungal MICc: 0.5
[15]; in combination with 10-ZOL
  antifungal MICc: 0.5
[15]; in combination with ZOL
  antifungal MICc: 0.25
Trichophyton tonsurans; in combination with 10-ZOL
  antifungal MICc: 0.25
Trichophyton tonsurans; in combination with ZOL
  antifungal MICc: 0.25
Aspergillus niger [16]; in combination with 10-ZOL
  antifungal MICc: 0.25
Aspergillus niger [16]; in combination with ZOL
  antifungal MICc: 1
Scedosporium apiospermum [17]; in combination with 10-ZOL
  antifungal MICc: 4
Scedosporium apiospermum [17]; in combination with ZOL
  antifungal MICc: 4
Aspergillus udagawae
  MIC / MEC: 1 µg/mL (≈ 1.42 µM)
Rhizopus oryzae
  MIC / MEC: 2 µg/mL (≈ 2.83 µM)
Candida auris [18]
  MIC / MEC: 2 µg/mL (≈ 2.83 µM)
Cryptococcus gattii [19]; in combination with 10-ZOL
  antifungal MICc: 0.125
Cryptococcus gattii [19]; in combination with ZOL
  antifungal MICc: 0.125
Candida dubliniensis
  MIC / MEC: 0.13 µg/mL (≈ 0.184 µM)
Candida tropicalis
  MIC / MEC: 0.25 µg/mL (≈ 0.354 µM)
Microsporum canis; in combination with 10-ZOL
  antifungal MICc: 0.063
Microsporum canis; in combination with ZOL
  antifungal MICc: 0.25
Lomentospora prolificans [20]; in combination with 10-ZOL
  antifungal MICc: 1
Lomentospora prolificans [20]; in combination with ZOL
  antifungal MICc: 2
Aspergillus niger [21]
  MIC / MEC: 2 µg/mL (≈ 2.83 µM)

## OC(Cn1cncn1)(Cn1cncn1)c1ccc(F)cc1F [FLC, fluconazole]
Nannizzia nana [1]; in combination with 10-ZOL
  antifungal MICc: 32
Nannizzia nana [1]; in combination with ZOL
  antifungal MICc: 8
Nannizzia nana [3]
  MIC / MEC: 32 µg/mL (≈ 104 µM)
Candida parapsilosis [4]
  MIC / MEC: 2 µg/mL (≈ 6.53 µM)
Candida parapsilosis [6]; in combination with 10-ZOL
  antifungal MICc: 1
Candida parapsilosis [6]; in combination with ZOL
  antifungal MICc: 0.25
Fusarium solani; in combination with 10-ZOL
  antifungal MICc: 64
Fusarium solani; in combination with ZOL
  antifungal MICc: 32
Trichophyton soudanense; in combination with 10-ZOL
  antifungal MICc: 4
Trichophyton soudanense; in combination with ZOL
  antifungal MICc: 64
Aspergillus parafelis [8]; in combination with 10-ZOL
  antifungal MICc: 4
Epidermophyton floccosum; in combination with 10-ZOL
  antifungal MICc: 32
Mucor circinelloides [10]; in combination with 10-ZOL
  antifungal MICc: 32
Mucor circinelloides [10]; in combination with ZOL
  antifungal MICc: 32
Cryptococcus tetragattii; in combination with 10-ZOL
  antifungal MICc: 2
Cryptococcus tetragattii; in combination with ZOL
  antifungal MICc: 1
Candida auris [11]; in combination with 10-ZOL
  antifungal MICc: 64
Candida auris [11]; in combination with ZOL
  antifungal MICc: 32
Aspergillus lentulus; in combination with 10-ZOL
  antifungal MICc: 4
Aspergillus lentulus; in combination with ZOL
  antifungal MICc: 64
Cryptococcus gattii [13]
  MIC / MEC: 2 µg/mL (≈ 6.53 µM)
[14]; in combination with 10-ZOL
  antifungal MICc: 64
Fusarium oxysporum; in combination with ZOL
  antifungal MICc: 64
Nannizzia gypsea; in combination with 10-ZOL
  antifungal MICc: 64
[15]; in combination with 10-ZOL
  antifungal MICc: 32
Trichophyton tonsurans; in combination with 10-ZOL
  antifungal MICc: 2
Trichophyton tonsurans; in combination with ZOL
  antifungal MICc: 32
Aspergillus niger [16]; in combination with 10-ZOL
  antifungal MICc: 64
Cryptococcus gattii [19]; in combination with 10-ZOL
  antifungal MICc: 1
Cryptococcus gattii [19]; in combination with ZOL
  antifungal MICc: 0.25
Candida dubliniensis
  MIC / MEC: 0.125 µg/mL (≈ 0.408 µM)
Candida tropicalis
  MIC / MEC: 16 µg/mL (≈ 52.2 µM)
Microsporum canis; in combination with 10-ZOL
  antifungal MICc: 64
Microsporum canis; in combination with ZOL
  antifungal MICc: 32
Lomentospora prolificans [20]; in combination with ZOL
  antifungal MICc: 512
